Patent US20240327364A1, “THERAPEUTIC TARGETING OF GPR68 TO INDUCE FERROPTOSIS” (University Of Maryland, Baltimore, priority 2023, published 2024)

How the values were obtained:
[1] = molecular target: T1, 5-HT2C (Homo sapiens, UniProt P28335); assay: GPCR Profiler; format: cell-based
T1 construct: host or cells: Chem-1 cells with promiscuous Gα15

[2] = molecular target: T2, PHKG1 (Homo sapiens, UniProt Q16816); assay: KinomeScan; format: binding; conditions: read-out: % Control
T2 construct: purchased DiscoveRx (Fremont, CA)

[3] = molecular target: T3, MST1R (Homo sapiens, UniProt Q04912); assay: KinomeScan; format: binding; conditions: read-out: % Control
T3 construct: purchased DiscoveRx

[4] = tested on: Thrombin Activated PARs; assay: GPCR Profiler; format: cell-based
[5] = molecular target: T4, V1A (Homo sapiens, UniProt P37288); assay: GPCR Profiler; format: cell-based
T4 construct: host or cells: Chem-1 cells with Gα15

[6] = molecular target: T5, PK1 (Homo sapiens, UniProt Q8TCW9); assay: GPCR Profiler; format: cell-based
T5 construct: host or cells: Chem-1 cells with Gα15

[7] = molecular target: T6, MKNK1 (Homo sapiens, UniProt Q9BUB5); assay: KinomeScan; format: binding; conditions: read-out: % Control
T6 construct: purchased DiscoveRx

[8] = molecular target: T7, ABL1(H396P)-nonphosphorylated (Homo sapiens, UniProt P00519, H396P); assay: KinomeScan; format: binding; conditions: read-out: % Control
T7 construct: purchased DiscoveRx

[9] = molecular target: T8, PAK4 (Homo sapiens, UniProt O96013); assay: KinomeScan; format: binding; conditions: read-out: % Control
T8 construct: purchased DiscoveRx

[10] = molecular target: T9, YSK4 (Homo sapiens, UniProt Q56UN5); assay: KinomeScan; format: binding; conditions: read-out: % Control
T9 construct: purchased DiscoveRx

[11] = molecular target: T10, NK2 (Homo sapiens, UniProt P21452); assay: GPCR Profiler; format: cell-based
T10 construct: host or cells: Chem-1 cells expressing Gα15

[12] = molecular target: T11, ADRA1A (Homo sapiens, UniProt P35348); assay: GPCR Profiler; format: cell-based
T11 construct: host or cells: Chem-1 cells with promiscuous Gα15

[13] = molecular target: T12, ULK1 (Homo sapiens, UniProt O75385); assay: KinomeScan; format: binding; conditions: read-out: % Control
T12 construct: purchased DiscoveRx

[14] = molecular target: T13, RET(M918T) (Homo sapiens, UniProt P07949, M918T); assay: KinomeScan; format: binding; conditions: read-out: % Control
T13 construct: purchased DiscoveRx (Fremont, CA)

[15] = molecular target: T14, MAP4K5 (Homo sapiens, UniProt Q9Y4K4); assay: KinomeScan; format: binding; conditions: read-out: % Control
T14 construct: purchased DiscoveRx (Fremont, CA)

[16] = molecular target: T15, CCR8 (Homo sapiens, UniProt P51685); assay: GPCR Profiler; format: cell-based
T15 construct: host or cells: Chem-1 cells with Gα15

[17] = molecular target: T16, PIK3CD (Homo sapiens, UniProt O00329); assay: KinomeScan; format: binding; conditions: read-out: % Control
T16 construct: purchased DiscoveRx (Fremont, CA)

[18] = molecular target: T17, MST2 (Homo sapiens, UniProt Q13188); assay: KinomeScan; format: binding; conditions: read-out: % Control
T17 construct: purchased DiscoveRx

[19] = molecular target: T18, NEK9 (Homo sapiens, UniProt Q8TD19); assay: KinomeScan; format: binding; conditions: read-out: % Control
T18 construct: purchased DiscoveRx

[20] = molecular target: T19, PIK3CA(Q546K) (Homo sapiens, UniProt P42336, Q546K); assay: KinomeScan; format: binding; conditions: read-out: % Control
T19 construct: purchased DiscoveRx (Fremont, CA)

[21] = tested on: K-562; assay: Cell Titer-Glo viability, Chronic myelogenous leukemia; format: cell-based
Experimental: (§1) OGM2 kills wide variety of cancer cell types. Cell sensitivity can be classified in to Very Sensitive (LC50<2 μM), Sensitive (LC50=2 to 10 μM), Mildly Sensitive (LC50>10 μM), and Refractory (no killing at 10 μM). The listed established cell were incubated with OGM2 at 2 μM or 10 μM for 72 hours under standard cell culture conditions, and relative cell number was assessed using Cell Titer-Glo Luminescent Cell Viability Assay (Promega™) following the manufacturer's instructions. Luminescence was determined using a Cytation 5 reader and Gen5 software package (BioTek™).
(§2) Cancer cells, which are very sensitive to killing by OGM2 (LCs <2 μM), with reported mRNA expression of GPR68 and the related proton sensing receptor GPR4. LC50's (concentrations causing 50% lethality) were determined using CellTiter-Glo (Promega™, G7570). Cells were plated in 12-well plates (CELLTREAT Scientific Products, 229112) in 1 ml of DMEM with high glucose, GlutaMAX, HEPES, or RPMI 1640 with Penicillin-Streptomycin (ThermoFisher™, 10564029, 11875119 and 15140122) and 10% FBS. Cells were incubated overnight at 37° C. in 5% CO2. Then 1 mL of fresh media was added with DMSO, OGM, or positive control (Erastin; APExBIO Technology, LLC, B1524) and cells incubated for 3 days. On the third day, all media was removed, cells were rinsed with 1×PBS, PBS was removed, and 200 μL of 1× Passive Lysis Buffer (Promega™, E1941) was added to each well. […]. Subsequently, 20 μL of lysate was added to 100 μL CellTiter-Glo™ reagent on a LUMITRAC 200 plate (Greiner™ bio-one, 82050-726). Plates were briefly spun down and read on a GloMax-Multi Detection System (Promega™).
The cells listed in the tables above were incubated with OGM2 at 2 μM or 10 μM for 72 hours under standard cell culture conditions, and relative cell number was assessed using Cell Titer-Glo Luminescent Cell Viability Assay (Promega™) following the manufacturer's instructions. Luminescence was determined using a Cytation 5 reader and Gen5 software package (BioTek™). RNA expression of GPR68 and GPR4 in the corresponding cancer cell lines are listed, according to the publicly available The Human Protein Atlas version 22.0 and Ensembl version 103.38 (see proteinatlas.org). The consensus normalized expression value (“nTPM”=normalize transcript per million) was calculated as the maximum nTPM value for each gene in the two data sources.

[22] = tested on: PANC02; assay: Clonogenicity (crystal violet); format: cell-based; conditions: 7 days
Experimental: In a third study, PANC02 pancreatic cells were plated at 400 cells per well in a 6-well plate and on the next day were treated with increasing concentrations of OGM2 for 7 days. The plate was fixed with formalin and stained with crystal violet.

[23] = tested on: SW480; assay: Cell Titer-Glo viability, Colon adenocarcinoma; format: cell-based; conditions: 72 hours
Experimental: as §1
as §2, with “Subsequently, 20 μL of lysate was added to 100 μL CellTiter-Glo™ reagent on a LUMITRAC 200 plate (Greiner™ bio-one, 82050-726).” left out
The cells listed in the tables above were incubated with OGM2 at 2 μM or 10 μM for 72 hours under standard cell culture conditions, and relative cell number was assessed using Cell Titer-Glo Luminescent Cell Viability Assay (Promega™) following the manufacturer's instructions. Luminescence was determined using a Cytation 5 reader and Gen5 software package (BioTek™). […] The consensus normalized expression value (“nTPM”=normalize transcript per million) was calculated as the maximum nTPM value for each gene in the two data sources.

T11 sequence (P35348 whole entry): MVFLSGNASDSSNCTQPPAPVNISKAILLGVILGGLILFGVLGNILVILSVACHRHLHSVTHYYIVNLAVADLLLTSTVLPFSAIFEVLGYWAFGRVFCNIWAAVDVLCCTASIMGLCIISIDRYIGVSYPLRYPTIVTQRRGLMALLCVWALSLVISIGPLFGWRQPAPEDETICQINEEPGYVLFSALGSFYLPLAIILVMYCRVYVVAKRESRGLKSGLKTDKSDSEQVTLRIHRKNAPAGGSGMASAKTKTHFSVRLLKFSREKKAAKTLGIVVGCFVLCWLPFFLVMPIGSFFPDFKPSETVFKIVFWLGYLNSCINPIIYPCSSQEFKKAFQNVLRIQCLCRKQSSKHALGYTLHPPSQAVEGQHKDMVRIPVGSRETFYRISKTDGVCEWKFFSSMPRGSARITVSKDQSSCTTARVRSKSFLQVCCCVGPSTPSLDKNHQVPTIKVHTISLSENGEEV
T5 sequence (Q8TCW9 whole entry): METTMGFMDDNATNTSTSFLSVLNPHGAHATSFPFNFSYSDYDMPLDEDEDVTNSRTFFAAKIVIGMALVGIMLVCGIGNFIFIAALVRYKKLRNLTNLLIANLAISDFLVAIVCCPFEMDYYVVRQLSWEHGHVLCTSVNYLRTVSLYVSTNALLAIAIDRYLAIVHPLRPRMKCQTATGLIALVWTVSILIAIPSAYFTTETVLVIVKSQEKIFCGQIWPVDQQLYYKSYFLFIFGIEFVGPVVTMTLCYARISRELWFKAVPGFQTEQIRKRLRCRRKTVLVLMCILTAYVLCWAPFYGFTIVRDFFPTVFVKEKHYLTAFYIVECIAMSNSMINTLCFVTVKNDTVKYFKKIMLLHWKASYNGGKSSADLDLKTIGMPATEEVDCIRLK
T10 sequence (P21452 whole entry): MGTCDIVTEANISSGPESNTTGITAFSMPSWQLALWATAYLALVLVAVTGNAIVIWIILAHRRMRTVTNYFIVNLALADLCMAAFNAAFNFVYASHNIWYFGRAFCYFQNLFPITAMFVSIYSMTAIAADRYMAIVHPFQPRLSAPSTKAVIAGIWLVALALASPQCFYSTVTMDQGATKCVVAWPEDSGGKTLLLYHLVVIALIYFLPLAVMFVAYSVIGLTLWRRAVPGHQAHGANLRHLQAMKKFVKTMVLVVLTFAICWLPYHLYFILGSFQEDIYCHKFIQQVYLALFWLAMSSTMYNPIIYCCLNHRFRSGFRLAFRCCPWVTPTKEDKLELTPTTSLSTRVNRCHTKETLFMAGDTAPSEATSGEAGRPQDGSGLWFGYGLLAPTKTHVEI
T4 sequence (P37288 whole entry): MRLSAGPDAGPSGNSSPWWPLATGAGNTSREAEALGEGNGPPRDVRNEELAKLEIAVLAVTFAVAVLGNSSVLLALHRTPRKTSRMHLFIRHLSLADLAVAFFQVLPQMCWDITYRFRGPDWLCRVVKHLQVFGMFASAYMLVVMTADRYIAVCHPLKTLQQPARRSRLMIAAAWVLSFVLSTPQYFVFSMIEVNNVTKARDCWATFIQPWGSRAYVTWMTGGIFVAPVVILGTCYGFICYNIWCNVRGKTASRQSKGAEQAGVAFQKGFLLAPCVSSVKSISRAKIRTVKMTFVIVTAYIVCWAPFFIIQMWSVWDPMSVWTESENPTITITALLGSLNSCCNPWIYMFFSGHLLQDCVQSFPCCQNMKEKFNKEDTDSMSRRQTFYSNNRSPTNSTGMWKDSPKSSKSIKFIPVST
T1 sequence (P28335 33-458): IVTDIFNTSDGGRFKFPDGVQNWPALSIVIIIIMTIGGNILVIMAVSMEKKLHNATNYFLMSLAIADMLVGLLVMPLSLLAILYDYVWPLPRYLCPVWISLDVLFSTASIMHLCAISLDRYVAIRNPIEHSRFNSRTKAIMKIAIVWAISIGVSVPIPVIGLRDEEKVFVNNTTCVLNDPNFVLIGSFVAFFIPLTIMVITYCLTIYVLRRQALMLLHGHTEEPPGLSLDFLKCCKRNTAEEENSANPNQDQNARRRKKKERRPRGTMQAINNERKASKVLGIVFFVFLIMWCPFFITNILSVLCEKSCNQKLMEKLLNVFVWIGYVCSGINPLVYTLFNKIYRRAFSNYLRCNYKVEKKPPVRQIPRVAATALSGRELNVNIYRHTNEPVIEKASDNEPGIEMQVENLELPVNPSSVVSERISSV
T15 sequence (P51685 whole entry, species assumed): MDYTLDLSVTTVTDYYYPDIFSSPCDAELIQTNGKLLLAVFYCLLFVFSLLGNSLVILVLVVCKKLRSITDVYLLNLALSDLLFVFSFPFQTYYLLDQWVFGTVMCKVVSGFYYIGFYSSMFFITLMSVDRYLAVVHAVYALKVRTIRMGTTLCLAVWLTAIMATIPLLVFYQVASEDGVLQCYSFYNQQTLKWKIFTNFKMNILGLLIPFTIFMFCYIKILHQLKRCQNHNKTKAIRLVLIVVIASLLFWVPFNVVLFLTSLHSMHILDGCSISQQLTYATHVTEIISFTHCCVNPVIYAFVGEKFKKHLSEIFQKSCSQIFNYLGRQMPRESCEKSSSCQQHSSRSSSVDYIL
T14 sequence (Q9Y4K4 whole entry): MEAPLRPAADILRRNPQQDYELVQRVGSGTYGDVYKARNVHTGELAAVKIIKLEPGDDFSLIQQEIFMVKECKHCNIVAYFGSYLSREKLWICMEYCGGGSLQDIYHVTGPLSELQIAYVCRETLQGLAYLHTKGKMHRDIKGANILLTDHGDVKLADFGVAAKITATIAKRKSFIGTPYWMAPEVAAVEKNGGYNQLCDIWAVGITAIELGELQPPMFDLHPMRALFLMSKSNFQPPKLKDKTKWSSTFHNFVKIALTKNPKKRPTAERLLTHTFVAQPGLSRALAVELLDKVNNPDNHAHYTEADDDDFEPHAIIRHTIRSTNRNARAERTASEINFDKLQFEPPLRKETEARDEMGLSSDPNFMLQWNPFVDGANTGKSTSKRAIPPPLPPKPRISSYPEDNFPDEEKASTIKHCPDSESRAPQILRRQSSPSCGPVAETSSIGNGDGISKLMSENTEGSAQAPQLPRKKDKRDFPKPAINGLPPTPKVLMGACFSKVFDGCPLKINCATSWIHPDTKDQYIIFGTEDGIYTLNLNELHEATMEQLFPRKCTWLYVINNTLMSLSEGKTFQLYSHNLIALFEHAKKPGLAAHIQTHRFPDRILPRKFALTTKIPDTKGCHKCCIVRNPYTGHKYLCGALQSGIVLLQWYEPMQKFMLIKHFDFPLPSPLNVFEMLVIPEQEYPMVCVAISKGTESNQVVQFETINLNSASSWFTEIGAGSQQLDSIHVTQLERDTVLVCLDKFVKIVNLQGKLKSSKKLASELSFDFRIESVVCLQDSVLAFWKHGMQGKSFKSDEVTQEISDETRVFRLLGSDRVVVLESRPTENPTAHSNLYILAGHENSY
T8 sequence (O96013 whole entry): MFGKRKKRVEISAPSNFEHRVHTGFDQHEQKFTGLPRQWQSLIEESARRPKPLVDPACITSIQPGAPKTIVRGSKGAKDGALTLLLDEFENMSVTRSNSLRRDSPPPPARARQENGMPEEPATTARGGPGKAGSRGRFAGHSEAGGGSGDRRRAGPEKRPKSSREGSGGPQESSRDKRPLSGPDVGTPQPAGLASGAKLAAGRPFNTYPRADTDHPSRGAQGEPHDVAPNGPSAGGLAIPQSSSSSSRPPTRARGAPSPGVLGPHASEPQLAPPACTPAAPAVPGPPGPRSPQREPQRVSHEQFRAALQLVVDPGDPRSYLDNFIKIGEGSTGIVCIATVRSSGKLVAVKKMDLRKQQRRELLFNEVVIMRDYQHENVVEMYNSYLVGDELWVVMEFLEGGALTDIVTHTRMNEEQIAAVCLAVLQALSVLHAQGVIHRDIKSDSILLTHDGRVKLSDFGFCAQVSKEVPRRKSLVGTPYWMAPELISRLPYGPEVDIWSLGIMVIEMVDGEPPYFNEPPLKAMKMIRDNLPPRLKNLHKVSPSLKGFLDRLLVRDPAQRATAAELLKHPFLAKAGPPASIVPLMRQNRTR
T6 sequence (Q9BUB5 whole entry): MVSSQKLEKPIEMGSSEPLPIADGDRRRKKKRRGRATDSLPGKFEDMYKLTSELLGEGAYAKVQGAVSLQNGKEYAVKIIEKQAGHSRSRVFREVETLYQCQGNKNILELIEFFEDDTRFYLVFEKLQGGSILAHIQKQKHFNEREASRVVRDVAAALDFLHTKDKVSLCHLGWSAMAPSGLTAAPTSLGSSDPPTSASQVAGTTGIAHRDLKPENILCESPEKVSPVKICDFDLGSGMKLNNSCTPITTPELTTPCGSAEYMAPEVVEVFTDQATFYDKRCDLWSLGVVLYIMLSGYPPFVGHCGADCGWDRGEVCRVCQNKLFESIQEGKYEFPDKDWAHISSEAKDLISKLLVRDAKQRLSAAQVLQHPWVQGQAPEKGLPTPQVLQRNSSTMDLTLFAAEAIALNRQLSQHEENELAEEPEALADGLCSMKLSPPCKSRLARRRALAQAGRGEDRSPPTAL
T2 sequence (Q16816 whole entry): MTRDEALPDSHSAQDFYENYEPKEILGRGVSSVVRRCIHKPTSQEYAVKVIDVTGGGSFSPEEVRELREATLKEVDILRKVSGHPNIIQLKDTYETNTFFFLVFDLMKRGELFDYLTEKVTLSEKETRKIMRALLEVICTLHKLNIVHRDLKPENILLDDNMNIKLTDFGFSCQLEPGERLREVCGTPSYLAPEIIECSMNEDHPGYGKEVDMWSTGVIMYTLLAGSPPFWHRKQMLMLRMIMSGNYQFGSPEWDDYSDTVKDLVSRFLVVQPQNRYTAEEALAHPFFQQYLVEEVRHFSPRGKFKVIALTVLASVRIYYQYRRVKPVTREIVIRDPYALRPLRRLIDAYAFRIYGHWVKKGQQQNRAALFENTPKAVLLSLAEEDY

## CCc1ccc2c(c1)C1(NN=C(c3cccc4ccccc34)S1)C(=O)N2 (centres unmarked) [OGM1, 5-ethyl-5′-naphthalen-1-ylspiro[1H-indole-3,2′-3H-1,3,4-thiadiazole]-2-one]
[1]; 10 uM
  Antagonism: −10.9
[1]; 12.5 uM
  Agonism: 2.2
[2]
  remaining binding at 10 µM: 91%
[3]
  remaining binding at 10 µM: 86%
[4]; 10 uM
  Antagonism: 3.2
[4]; 12.5 uM
  Agonism: 1
[5]; 10 uM
  Antagonism: 12.3
[5]; 12.5 uM
  Agonism: 0.1
[6]; 10 uM
  Antagonism: −8
[6]; 12.5 uM
  Agonism: 0.2
[7]
  remaining binding at 10 µM: 90%
[8]
  remaining binding at 10 µM: 88%
[9]
  remaining binding at 10 µM: 66%
[10]
  remaining binding at 10 µM: 100%
[11]; 10 uM
  Antagonism: 1
[11]; 12.5 uM
  Agonism: 0
[12]; 10 uM
  Antagonism: 3
[12]; 12.5 uM
  Agonism: 1.9
[13]
  remaining binding at 10 µM: 100%
[14]
  remaining binding at 10 µM: 92%
[15]
  remaining binding at 10 µM: 100%
[16]; 10 uM
  Antagonism: −2.5
[16]; 12.5 uM
  Agonism: 2
[17]
  remaining binding at 10 µM: 55%
[18]
  remaining binding at 10 µM: 69%
[19]
  remaining binding at 10 µM: 100%
[20]
  remaining binding at 10 µM: 95%

## CCc1ccc2c(c1)C1(NN=C(c3ccccc3)S1)C(=O)N2 (centres unmarked) [OGM2]
[21]
  Class: Sensitive (Sensitive (LC50=2 to 10 μM))
[21]; 72 hours
  % Survival 2 μM OGM: 56.7%
  % Survival 10 μM OGM: 37.0%
[21]; Homo sapiens, K562, 72 hours, read-out: LC50 (the source's name)
  CC50: 2000 to 10000 nM
[22]
  clonogenicity: reduced the clonogenicity of pancreatic cancer cells
[23]
  % Survival 2 μM OGM: 39.8%
  % Survival 10 μM OGM: 25.0%
[23]; Homo sapiens, SW480, read-out: LC50 (the source's name)
  CC50: < 2000 nM
